Measurements as given in ChEMBL document CHEMBL1201862, “PubChem BioAssay data set” (2004).
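96-well plates; 48 h exposure; 5 concentrations. Endpoints by linear interpolation between flanking doses. Not reached: highest tested concentration assigned. GI50 marks 50% less growth.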 Active and inactive are the calls of the source. No stated cut-off is given here; in the data, active = GI50 up to about 1.1 µM and inactive = higher.

Key:
Experiment in all cases: NCI anticancer screen, dose series, 48 h
NCI-H522 = system: NCI-H522
OVCAR-5 = system: OVCAR-5
TK-10 = system: TK-10
SN12C = system: SN12C
HOP-92 = system: HOP-92
SF-268 = system: SF-268
MCF7 = system: MCF7
SK-OV-3 = system: SK-OV-3
SK-MEL-2 = system: SK-MEL-2
CAKI-1 = system: CAKI-1
OVCAR-8 = system: OVCAR-8
UO-31 = system: UO-31
CCRF-CEM = system: CCRF-CEM
HL-60 = system: HL-60
NCI-H226 = system: NCI-H226
786-0 = system: 786-0
NCI-H460 = system: NCI-H460
BT-549 = system: BT-549
UACC-257 = system: UACC-257
HT-29 = system: HT-29
NCI-H23 = system: NCI-H23
SK-MEL-28 = system: SK-MEL-28
SF-295 = system: SF-295
MDA-N = system: MDA-N
NCI/ADR-RES = system: NCI/ADR-RES
SNB-19 = system: SNB-19
SF-539 = system: SF-539
MDA-MB-231 = system: MDA-MB-231
DU-145 = system: DU-145
U-251 = system: U-251
KM12 = system: KM12
K562 = system: K562
MOLT-4 = system: MOLT-4
PC-3 = system: PC-3
IGROV-1 = system: IGROV-1
RXF 393 = system: RXF 393
A549 = system: A549
MDA-MB-435 = system: MDA-MB-435
SR = system: SR
HCT-116 = system: HCT-116
SK-MEL-5 = system: SK-MEL-5
HOP-62 = system: HOP-62
LOX IMVI = system: LOX IMVI
ACHN = system: ACHN
A498 = system: A498
HCT-15 = system: HCT-15
RPMI-8226 = system: RPMI-8226
Hs-578T = system: Hs-578T
EKVX = system: EKVX
SNB-75 = system: SNB-75
M14 = system: M14
UACC-62 = system: UACC-62
Malme-3M = system: Malme-3M
SW-620 = system: SW-620
COLO 205 = system: COLO 205
OVCAR-4 = system: OVCAR-4
T47D = system: T47D
OVCAR-3 = system: OVCAR-3

C[N+](CCCl)(CCCl)Cc1cccc2cccc([N+](=O)[O-])c12
GI50 (NCI-H522): 73.1 µM (inactive) | GI50 (OVCAR-5): > 100 µM (inactive) | GI50 (TK-10): > 100 µM (inactive) | GI50 (SN12C): 45.5 µM (inactive) | GI50 (HOP-92): > 100 µM (inactive) | GI50 (SF-268): > 100 µM (inactive) | GI50 (MCF7): 38.2 µM (inactive) | GI50 (SK-OV-3): > 100 µM (inactive) | GI50 (SK-MEL-2): > 100 µM (inactive) | GI50 (CAKI-1): 31 µM (inactive) | GI50 (OVCAR-8): 43.5 µM (inactive) | GI50 (UO-31): > 100 µM (inactive) | GI50 (CCRF-CEM): 73.6 µM (inactive) | GI50 (HL-60): 45.1 µM (inactive) | GI50 (NCI-H226): > 100 µM (inactive) | GI50 (786-0): > 100 µM (inactive) | GI50 (NCI-H460): 53.8 µM (inactive) | GI50 (BT-549): > 100 µM (inactive) | GI50 (UACC-257): 37.2 µM (inactive) | GI50 (HT-29): 55.8 µM (inactive) | GI50 (NCI-H23): 30 µM (inactive) | GI50 (SK-MEL-28): > 100 µM (inactive) | GI50 (SF-295): > 100 µM (inactive) | GI50 (MDA-N): > 100 µM (inactive) | GI50 (NCI/ADR-RES): > 100 µM (inactive) | GI50 (SNB-19): 75.2 µM (inactive) | GI50 (SF-539): 94.8 µM (inactive) | GI50 (MDA-MB-231): > 100 µM (inactive) | GI50 (DU-145): > 100 µM (inactive) | GI50 (U-251): > 100 µM (inactive) | GI50 (KM12): > 100 µM (inactive) | GI50 (K562): > 100 µM (inactive) | GI50 (MOLT-4): 60.5 µM (inactive) | GI50 (PC-3): 85.3 µM (inactive) | GI50 (IGROV-1): 56.4 µM (inactive) | GI50 (RXF 393): > 100 µM (inactive) | GI50 (A549): 97.3 µM (inactive) | GI50 (MDA-MB-435): > 100 µM (inactive) | GI50 (SR): 5.83 µM (inactive) | GI50 (HCT-116): > 100 µM (inactive) | GI50 (SK-MEL-5): 53.3 µM (inactive) | GI50 (HOP-62): 89.1 µM (inactive) | GI50 (LOX IMVI): 48.1 µM (inactive) | GI50 (ACHN): 44.5 µM (inactive) | GI50 (A498): > 100 µM (inactive) | GI50 (HCT-15): > 100 µM | GI50 (RPMI-8226): 40.5 µM (inactive) | GI50 (Hs-578T): > 100 µM (inactive) | GI50 (EKVX): > 100 µM (inactive) | GI50 (SNB-75): > 100 µM (inactive) | GI50 (M14): > 100 µM (inactive) | GI50 (UACC-62): > 100 µM (inactive) | GI50 (Malme-3M): 81.1 µM (inactive) | GI50 (SW-620): > 100 µM (inactive) | GI50 (COLO 205): 25.8 µM (inactive) | GI50 (OVCAR-4): 57.7 µM (inactive) | GI50 (T47D): 42.7 µM (inactive) | GI50 (OVCAR-3): 44.7 µM (inactive)

O=C(CCN1CCCCC1)c1csc2ccccc12
GI50 (NCI-H522): > 100 µM (inactive) | GI50 (OVCAR-5): > 100 µM (inactive) | GI50 (TK-10): 94.6 µM (inactive) | GI50 (SN12C): > 100 µM (inactive) | GI50 (HOP-92): > 100 µM (inactive) | GI50 (SF-268): > 100 µM (inactive) | GI50 (MCF7): 20 µM (inactive) | GI50 (SK-OV-3): > 100 µM (inactive) | GI50 (SK-MEL-2): > 100 µM (inactive) | GI50 (CAKI-1): > 100 µM (inactive) | GI50 (OVCAR-8): > 100 µM (inactive) | GI50 (UO-31): > 100 µM (inactive) | GI50 (NCI-H226): > 100 µM (inactive) | GI50 (786-0): 50.1 µM (inactive) | GI50 (NCI-H460): > 100 µM (inactive) | GI50 (BT-549): > 100 µM (inactive) | GI50 (UACC-257): > 100 µM (inactive) | GI50 (HT-29): > 100 µM (inactive) | GI50 (NCI-H23): > 100 µM (inactive) | GI50 (SK-MEL-28): > 100 µM (inactive) | GI50 (SF-295): > 100 µM (inactive) | GI50 (MDA-N): > 100 µM (inactive) | GI50 (NCI/ADR-RES): > 100 µM (inactive) | GI50 (SNB-19): > 100 µM (inactive) | GI50 (SF-539): > 100 µM (inactive) | GI50 (MDA-MB-231): > 100 µM (inactive) | GI50 (DU-145): > 100 µM (inactive) | GI50 (U-251): > 100 µM (inactive) | GI50 (KM12): 33.1 µM (inactive) | GI50 (K562): > 100 µM (inactive) | GI50 (MOLT-4): 61.2 µM (inactive) | GI50 (PC-3): > 100 µM (inactive) | GI50 (IGROV-1): > 100 µM (inactive) | GI50 (RXF 393): > 100 µM (inactive) | GI50 (A549): > 100 µM (inactive) | GI50 (MDA-MB-435): > 100 µM (inactive) | GI50 (SR): > 100 µM (inactive) | GI50 (HCT-116): > 100 µM (inactive) | GI50 (SK-MEL-5): > 100 µM (inactive) | GI50 (HOP-62): > 100 µM (inactive) | GI50 (LOX IMVI): > 100 µM (inactive) | GI50 (ACHN): > 100 µM (inactive) | GI50 (A498): > 100 µM (inactive) | GI50 (HCT-15): > 100 µM | GI50 (RPMI-8226): 10.1 µM (inactive) | GI50 (Hs-578T): > 100 µM (inactive) | GI50 (EKVX): > 100 µM (inactive) | GI50 (SNB-75): > 100 µM (inactive) | GI50 (M14): > 100 µM (inactive) | GI50 (UACC-62): > 100 µM (inactive) | GI50 (Malme-3M): > 100 µM (inactive) | GI50 (SW-620): > 100 µM (inactive) | GI50 (COLO 205): > 100 µM (inactive) | GI50 (OVCAR-4): > 100 µM (inactive) | GI50 (T47D): 45.7 µM (inactive) | GI50 (OVCAR-3): > 100 µM (inactive)
